Test results: publication PMC9854762, “Antibiofilm and Anti-Quorum-Sensing Activities of Novel Pyrazole and Pyrazolo[1,5-a]pyrimidine Derivatives as Carbonic Anhydrase I and II Inhibitors: Design, Synthesis, Radiosterilization, and Molecular Docking Studies” (Antibiotics, 2023)
In brackets after ≈: the same amount, converted by molar mass. Like-named read-outs stand apart in the source and are kept apart here.

How the values were obtained:
E. coli DH-5987 [1] = experiment: Agar well-diffusion assay; format: cell-based; conditions: Escherichia coli, DH5987, 50 µL of 10 mM per well, read-out: Diameter of Inhibition Zones (AZOI)
Method: (§1) The synthesized compounds were initially screened for their in vitro antibacterial activity against the different Gram-positive and Gram-negative bacteria, tested using the agar well-diffusion assay. The turbidity of the bacterial suspensions was established to the 0.5 McFarland turbidity standard. The activity was performed on TS agar plates. The bacteria were spread on the surface of the agar plates, and 10 mm wells were screwed into the agar plates. The assay was performed under aseptic conditions. An aliquot of 50 µL of each tested compound (10 mM) was added to the wells, and the plates were incubated overnight at 37 °C. Both Erythromycin and Amikacin antibiotic disks were used as positive control, while DMSO solvent was used as a negative control in this study. The diameters of inhibition zones were measured and recorded in mm. A comparative study of the synthesized compounds was determined. The experiment was performed in triplicates.

E. faecalis DH-5478 [2] = experiment: Agar well-diffusion assay; format: cell-based; conditions: Enterococcus faecalis
Method: as §1

A. baumannii DH-243 [3] = experiment: Agar well-diffusion assay; format: cell-based; conditions: Acinetobacter baumannii, DH243; A. baumannii DH-243; 50 µL of 10 mM per well; read-out: Diameter of Inhibition Zones (AZOI)
Method: as §1

S. pyogenes DH-3467 [4] = experiment: Agar well-diffusion assay; format: cell-based; conditions: Streptococcus pyogenes
Method: as §1

S. aureus DH-432 [5] = experiment: Agar well-diffusion assay; format: cell-based; conditions: Staphylococcus aureus
Method: as §1

P. aeruginosa DH-5698 [6] = experiment: Agar well-diffusion assay; format: cell-based, Pseudomonus aeruginosa; conditions: Pseudomonas aeruginosa, DH5698; P. aeruginosa DH-5698; 50 µL of 10 mM per well; read-out: Diameter of Inhibition Zones (AZOI)
Method: as §1

E. coli DH-5987 [7] = experiment: Broth microdilution MIC/MBC; format: cell-based, Escherichia coli; conditions: E. coli DH-5987; for MBC/MIC: value in brackets; for MIC: Escherichia coli, DH5987, 24 h, read-out: MIC (Mean ± SEM)
Method: (§2) The broth microdilution method was taken as a basis to detect the MICs of pyrazole compounds against tested clinical isolates, according to the Clinical Laboratory and Standards Institute guidelines. The broth cultures were used to prepare the bacterial inoculums, and the suspensions were adjusted to the standard 0.5 McFarland turbidity. Stock solutions of the synthesized pyrazoles were prepared in pure DMSO and further serially diluted with TS broth in the concentration range from 128 µg/mL to 0.0625 µg/mL. A well containing noninoculated TS broth, free of any antimicrobial agents, was also included to ensure the medium sterility, while Erythromycin and Amikacin served as positive controls. Bacterial growth was determined by adding 20 µL of 0.5% TTC (2,3,5-triphenyltetrazolium chloride) aqueous solution. […] All experiments were repeated three times. The bactericidal effect from each concentration of the pyrazole and pyrazolo[1,5-a]pyrimidine derivatives showing growth inhibition was further studied. For this study, a loopful of 5 µL was taken from each no-visible growth tube and streaked onto plates of TS agar.

A. baumannii DH-243 [8] = experiment: Broth microdilution MIC/MBC; format: cell-based, Acinetobacter baumannii; conditions: for MIC: Acinetobacter baumannii, DH243, 24 h, read-out: MIC (Mean ± SEM); for MBC/MIC: value in brackets
Method: as §2

S. aureus DH-432 [9] = experiment: Broth microdilution MIC/MBC; format: cell-based, Staphylococcus aureus; conditions: for MIC: Staphylococcus aureus, DH432, 24 h, read-out: MIC (Mean ± SEM); for MBC/MIC: value in brackets
Method: as §2

P. aeruginosa DH-5698 [10] = experiment: Broth microdilution MIC/MBC; format: cell-based, Pseudomonus aeruginosa; conditions: for MIC: Pseudomonas aeruginosa, DH5698, 24 h, read-out: MIC (Mean ± SEM); for MBC/MIC: value in brackets
Method: as §2

E. faecalis DH-5478 [11] = experiment: Broth microdilution MIC/MBC; format: cell-based, Enterococcus faecalis; conditions: for MIC: Enterococcus faecalis, DH5478, 24 h, read-out: MIC (Mean ± SEM); for MBC/MIC: value in brackets
Method: as §2

S. pyogenes DH-3467 [12] = experiment: Broth microdilution MIC/MBC; format: cell-based, Streptococcus pyogenes; conditions: for MIC: Streptococcus pyogenes, DH3467, 24 h, read-out: MIC (Mean ± SEM); for MBC/MIC: value in brackets
Method: as §2

Gram-positive isolates = experiment: Broth microdilution MIC/MBC, summary; format: cell-based; conditions: Gram-positive isolates (E. faecalis, S. aureus, S. pyogenes)
Method: as §2

[13] = DH5478, E. faecalis DH-5478, 50 µL of 10 mM per well, read-out: Diameter of Inhibition Zones (AZOI)
[14] = DH3467, S. pyogenes DH-3467, 50 µL of 10 mM per well, read-out: Diameter of Inhibition Zones (AZOI)
[15] = DH432, S. aureus DH-432, 50 µL of 10 mM per well, read-out: Diameter of Inhibition Zones (AZOI)

| Compound | zone of inhibition at 10000 µM (E. coli DH-5987 [1]) | zone of inhibition at 10000 µM (E. faecalis DH-5478 [2]; [13]) | zone of inhibition at 10000 µM (A. baumannii DH-243 [3]) | zone of inhibition at 10000 µM (S. pyogenes DH-3467 [4]; [14]) | zone of inhibition at 10000 µM (S. aureus DH-432 [5]; [15]) | melting point | zone of inhibition at 10000 µM (P. aeruginosa DH-5698 [6]) | MBC/MIC (E. coli DH-5987 [7]) | MIC (E. coli DH-5987 [7]) | MIC (A. baumannii DH-243 [8]) | MBC/MIC (A. baumannii DH-243 [8]) | MIC (S. aureus DH-432 [9]) | MBC/MIC (S. aureus DH-432 [9]) | MIC (P. aeruginosa DH-5698 [10]) | MBC/MIC (P. aeruginosa DH-5698 [10]) | MIC (E. faecalis DH-5478 [11]) | MBC/MIC (E. faecalis DH-5478 [11]) | MIC (S. pyogenes DH-3467 [12]) | MBC/MIC (S. pyogenes DH-3467 [12]) | other results |
| --- | --- | --- | --- | --- | --- | --- | --- | --- | --- | --- | --- | --- | --- | --- | --- | --- | --- | --- | --- | --- |
| CCOC(=O)c1ccc(N=Nc2c(N)nn3c(-c4cccs4)cc(-c4ccccc4)nc23)cc1 [Compound 8a, Ethyl-4-((2-amino-5-phenyl-7-(thiophen-2-yl)pyrazolo[1,5-a]pyrimidin-3-yl)diazenyl)benzoate] | 23.4 mm | 20.6 mm | 19.7 mm | 21.4 mm | 22 mm | 200 to 202 °C | 21.6 mm | 1 | 2 ± 0.2 µg/mL (≈ 4.27 µM) | 4 ± 0.2 µg/mL (≈ 8.54 µM) | 2 | 2 ± 0.2 µg/mL (≈ 4.27 µM) | 1 | 2 ± 0.3 µg/mL (≈ 4.27 µM) | 1 | 4 ± 0.3 µg/mL (≈ 8.54 µM) | 1 | 4 ± 0.4 µg/mL (≈ 8.54 µM) | 1 | – |
| CCOC(=O)c1ccc(N=Nc2c(N)nn3c(-c4ccco4)cc(-c4ccccc4)nc23)cc1 [Compound 8b, Ethyl 4-((2-amino-7-(furan-2-yl)-5-phenylpyrazolo[1,5-a]pyrimidin-3-yl)diazenyl)benzoate] | 20.1 mm | 17.3 mm | 16.5 mm | 18.7 mm | 19.5 mm | 212 to 214 °C | 18.4 mm | 1 | 2 ± 0.3 µg/mL (≈ 4.42 µM) | 8 ± 0.2 µg/mL (≈ 17.7 µM) | 2 | 4 ± 0.3 µg/mL (≈ 8.84 µM) | 2 | 4 ± 0.1 µg/mL (≈ 8.84 µM) | 2 | 4 ± 0.1 µg/mL (≈ 8.84 µM) | 2 | 8 ± 0.2 µg/mL (≈ 17.7 µM) | 1 | – |
| CCOC(=O)c1ccc(N=Nc2c(N)nn3c(N)c(C#N)c(-c4ccc(OC)cc4)nc23)cc1 [Compound 9b, Ethyl-4-((2,7-diamino-6-cyano-5-(4-methoxyphenyl)pyrazolo[1,5-a]pyrimidin-3-yl)diazenyl)benzoate] | 26.5 mm | 24.3 mm | 23 mm | 25.7 mm | 25 mm | 210 to 212 °C | 25.4 mm | 0.5 | 1 ± 0.3 µg/mL (≈ 2.19 µM) | 2 ± 0.1 µg/mL (≈ 4.38 µM) | 1 | 1.5 ± 0.2 µg/mL (≈ 3.29 µM) | 1 | 1.5 ± 0.2 µg/mL (≈ 3.29 µM) | 0.5 | 2 ± 0.2 µg/mL (≈ 4.38 µM) | 1 | 2 ± 0.3 µg/mL (≈ 4.38 µM) | 0.5 | – |
| CCOC(=O)c1ccc(N=Nc2c(N)nn3c(N)c(C#N)c(-c4ccc(Cl)cc4)nc23)cc1 [Compound 9c, Ethyl-4-((2,7-diamino-5-(4-chlorophenyl)-6-cyanopyrazolo[1,5-a]pyrimidin-3-yl)diazenyl)benzoate] | 25.2 mm | 23.1 mm | 23.9 mm | 23.5 mm | 24.2 mm | 288 to 290 °C | 24.1 mm | 1 | 1 ± 0.3 µg/mL (≈ 2.17 µM) | 4 ± 0.4 µg/mL (≈ 8.68 µM) | 1 | 2 ± 0.3 µg/mL (≈ 4.34 µM) | 1 | 2 ± 0.2 µg/mL (≈ 4.34 µM) | 1 | 4 ± 0.2 µg/mL (≈ 8.68 µM) | 1 | 2 ± 0.1 µg/mL (≈ 4.34 µM) | 1 | – |
| CCOC(=O)c1ccc(N=Nc2c(N)nn3c(O)c(C#N)c(-c4ccc(Cl)cc4)nc23)cc1 [Compound 10b, Ethyl 4-((2-amino-5-(4-chlorophenyl)-6-cyano-7-hydroxypyrazolo[1,5-a]pyrimidin-3-yl)diazenyl)benzoate] | 27.1 mm | 25.1 mm | 24.2 mm | 26.3 mm | 26.8 mm | 270 to 272 °C | 26.3 mm | 0.5 | 0.75 ± 0.1 µg/mL (≈ 1.62 µM) | 2 ± 0.2 µg/mL (≈ 4.33 µM) | 1 | 1.5 ± 0.3 µg/mL (≈ 3.25 µM) | 0.5 | 1.5 ± 0.1 µg/mL (≈ 3.25 µM) | 0.5 | 2 ± 0.3 µg/mL (≈ 4.33 µM) | 1 | 1.5 ± 0.2 µg/mL (≈ 3.25 µM) | 0.5 | – |
| CC[C@H]1OC(=O)[C@H](C)[C@@H](O[C@H]2C[C@@](C)(OC)[C@@H](O)[C@H](C)O2)[C@H](C)[C@@H](O[C@@H]2O[C@H](C)C[C@H](N(C)C)[C@H]2O)[C@](C)(O)C[C@@H](C)C(=O)[C@H](C)[C@@H](O)[C@]1(C)O [E, Erythromycin, reference compound] | – | – | – | – | – | – | – | – | – | – | – | 8 ± 0.2 µg/mL (≈ 10.9 µM) | 2 | – | – | 32 ± 0.1 µg/mL (≈ 43.6 µM) | 4 | 64 ± 0.3 µg/mL (≈ 87.2 µM) | 2 | zone of inhibition at 10000 µM (E. faecalis DH-5478 [2]; DH5478, read-out: Diameter of Inhibition Zones (AZOI)): 11 mm; zone of inhibition at 10000 µM (S. pyogenes DH-3467 [4]; DH3467, read-out: Diameter of Inhibition Zones (AZOI)): 10.5 mm; zone of inhibition at 10000 µM (S. aureus DH-432 [5]; DH432, read-out: Diameter of Inhibition Zones (AZOI)): 12 mm; MBC (Gram-positive isolates; read-out: MBC): 16 to 128 µg/mL (≈ 21.8 to 174 µM); MIC (Gram-positive isolates; read-out: MIC): 8 to 64 µg/mL (≈ 10.9 to 87.2 µM) |
